Test results reported in patent publication US9164105B2, “Pancreatic cancer biomarker using the characteristics of pancreatic cancer stem cells, and use thereof” (INDUSTRY-ACADEMIC COOPERATION FOUNDATION, YONSEI UNIVERSITY, priority 2012, dated 2015).

Key:
Type in all cases: cell-based, human
[1] = tested on: Hpac-spheres; assay: Inhibition of sphere formation by stem cell signaling inhibitors; settings: inhibitor added into sphere culture medium, observed after 7 days
Protocol: (§1) For sphere formation, pancreatic cancer cell lines were plated 1000 cell/mL in serum-free DMEM/F12 supplemented with EGF (10 ng/mL, R&D Systems Inc., Minneapolis, Minn.), bFGF ([…], R&D Systems Inc.), 1 ITS (insulin transferring selenium, Gibco) and 0.5% FBS on Corning Costar ultra-low attached 6-well culture dishes (Corning Inc., Corning, N.Y., US), and cultured for 7-10 days. The adherent cells cultured with the same media by attaching on culture plates (Nalgene Nunc Int., Rochester, N.Y.) were used as a control group.
Well-known stem cell signaling inhibitors DAPT (Calbiochem, San Diego, Calif., USA), Cyclopamine-KAAD (Calbiochem, San Diego, Calif., USA), LiCl (Sigma-Aldrich, Inc., St. Louis, Mo.), ATRA (Sigma-Aldrich, Inc., St. Louis, Mo.), OV (Sigma-Aldrich, Inc., St. Louis, Mo.) were added added into sphere culture medium, and cultured. After 7 days, sphere formation was observed.

[2] = tested on: GLRX3; assay: GLRX3 mRNA and protein expression in GLRX3 knock-down cell line (PCR and western blot); settings: Hpac cell line transfected with shRNA, puromycin-selected clones, vs control shRNA
Protocol: (§2) Selection marker was puromycin ([…]).

[3] = tested on: Hpac cell line; assay: Doubling time assay (cell proliferation) of GLRX3 knock-down cell line; settings: GLRX3 k/d cell line compared to the control, counted for 5 days
Protocol: as §2

[4] = tested on: Hpac cell line; assay: Wound-healing assay of GLRX3 knock-down cell line; settings: GLRX3 k/d cell line compared to the control
Protocol: as §2

[5] = tested on: Hpac cell line; assay: Sphere culture of GLRX3 knock-down cell line; settings: sphere-cultured for 7 days, vs control cell line
Protocol: as §1
(§3) For clonogenic assay, 0.6% agar in cell media was boiled, hardened on 24-well plate (lower layer media). The cells at density of 1000 cell/well and 0.3% agar-cell media (upper layer media) were mixed, and hardened on lower layer media. Once 0.3% upper layer media was hardened, 500 μL/well of media was added on the upper layer media. Adding the media every third day, the cells were cultured for 3-4 weeks. Afterward, the media on agar was removed, stained with crystal violet to count the number of colony.

[6] = tested on: Hpac cell line; assay: Clonogenic assay of GLRX3 knock-down cell line; settings: soft agar, 3-4 weeks, vs control cell line
Protocol: as §3

[7] = tested on: CFAPC-1 cells; assay: Fluorescence-Activated Cell Sorting of CD24/CD44/ESA after GLRX3 siRNA transfection; settings: 72 hours after transfection; decreased from 70.4% (control)
Protocol: To inhibit GLRX3, siRNA (invitrogen Stealth™ siRNA duplex oligoribonucleotides) to GLRX3 was used. Sense siRNA sequence was UGAGGGAGUUCUUUAGCUAACUCUG, and antisense siRNA sequence was CAGAGUUAGCUAAAGAACUCCCUCA. Med GC (invitrogen) was used as negative control siRNA. CFAPC-1 cells were transfected with GLRX3 or negative control siRNA using RNAiMAX (invtirogen, Carlsbad, Calif., US), and incubated for 72 hours. The cells were treated with accutase (Sigma-Aldrich, St. Louis, Mo.) to prepare suspensions with the same number of single cells. Afterward, the cells were stained with PE-CD24 (BD Biosciences PharMingen, San Diego, Calif.), APC-CD44 (BD Biosciences PharMingen, San Diego, Calif.) and FITC-ESA (BD Biosciences PharMingen, San Diego, Calif.). Fluorescence-Activated Cell Sorting was carried out using BD LSR II (BD Biosciences, Franklin Lakes, N.J.) and analyzed by BD FACSDiva software.

Molecule: CC1=C(/C=C/C(C)=C/C=C/C(C)=C/C(=O)O)C(C)(C)CCC1 [ATRA]
- ability to form sphere in Hpac-spheres [1]: completely inhibited or reduced

Molecule: C[C@H](NC(=O)Cc1cc(F)cc(F)c1)C(=O)N[C@H](C(=O)OC(C)(C)C)c1ccccc1 [DAPT]
- ability to form sphere in Hpac-spheres [1]: completely inhibited or reduced

Molecule: CC1=C2C[C@H]3[C@@H](CC=C4CC(=O)CC[C@@]43C)[C@@H]2CC[C@]12O[C@@H]1C[C@H](C)CN(CCNC(=O)CCCCCNC(=O)CCc3ccccc3)[C@H]1[C@H]2C [KAAD, Cyclopamine-KAAD]
- ability to form sphere in Hpac-spheres [1]: completely inhibited or reduced

Molecule: [Cl-].[Li+] [LiCl]
- ability to form sphere in Hpac-spheres [1]: completely inhibited or reduced

Molecule: [Na+].[Na+].[Na+].[O]=[V]([O-])([O-])[O-] [OV]
- ability to form sphere in Hpac-spheres [1]: completely inhibited or reduced

Molecule: shRNA to GLRX3: shRNA plasmid to GLRX3, sequence GTGGAAATTCTTCACAAACAT (SEQ ID NO:4), used to establish the GLRX3 knock-down Hpac line (guide GTGGAAATTCTTCACAAACAT; listed as Homo sapiens)
- Expressions of mRNA and protein of GLRX3 [2]: significantly reduced
- cell proliferation rate [3]: decreased
- cell migration activity [4]: decreased
- ability to form spheres [5]: not formed
- colonies formed (viability and proliferation) [6]: fewer colonies

Molecule: siRNA to GLRX3: Stealth siRNA duplex to GLRX3; sense UGAGGGAGUUCUUUAGCUAACUCUG (SEQ ID NOs:2 and 3) (chain 1 UGAGGGAGUUCUUUAGCUAACUCUG; chain 2 CAGAGUUAGCUAAAGAACUCCCUCA; listed as RNA, chemistry not given here; listed as Homo sapiens)
- fraction of CD24+/CD44+/ESA+ [7]: 29.3%
